Consider two molecules from patent publication US6495591B1, “Fungal efflux pump inhibitors” (Essential Therapeutics, Inc., priority 1997, dated 2002).

Read-outs that look alike come from different tables or passages of the source.

Holding throughout (format): cell-based
The test system of assay [1] is YEM 17 C. glabrata, CgCDR up. The following applies: 24 hrs, 80% inhibition; for MIC of compound in the presence of fluconazole (+): 1/8 × MIC of fluconazole.
A further assay deals with YEM 30 C. albicans wt. Briefly: FEPI MIC with/without 1/8 fluconazole MIC at 24 hrs (Table 11).
The test system of the next assay is Aspergillus fumigatus. Briefly: FEPI MICs in combination with 1/4 the azole's MIC (Table 12). On the set-up: FEPI MIC (alone): unit not given here. The conditions noted are these: for FEPI MIC with itraconazole, 60% Inh / FEPI MIC with itraconazole, 80% Inh: itraconazole 0.063 μg/ml (1/4 MIC); for FEPI MIC with ketoconazole, 60% Inh / FEPI MIC with ketoconazole, 80% Inh: ketoconazole 4 μg/ml (1/4 MIC); for FEPI MIC (alone): no azole, 35° C., CM Broth. As for the experimental part:
The combinations were tested against a series of Candida strain with known expression of efflux pumps or with complete deletion of all known pumps and Aspergillus fumigatus. Results are reported as minimum inhibitory concentration (MIC) of […] in the presence or absence of […]. A total of 27 distinct milbemycins were studied.

The test system of assay [2] is YEM 27 C. albicans ΔCDR1ΔCDR2 ΔBENΔFLU1. Briefly: microbe, parasite or virus in culture. The conditions noted are these: YEM 27, 24 hrs, 80% inhibition; for MIC of compound in the presence of fluconazole (+): 1/8 × MIC of fluconazole.
Assay [3] concerns YEM 13 C. albicans BEN up. Briefly: microbe, parasite or virus in culture. The following applies: YEM 13, 24 hrs, 80% inhibition; for MIC of compound in the presence of fluconazole (+): 1/8 × MIC of fluconazole.
Another assay has as its system YEM 51 C. glabrata wt. Briefly: FEPI MIC with/without 1/8 fluconazole MIC at 24 hrs (Table 11).
Assay [4] has as its system YEM 24 C. albicans ΔCDR1, ΔCDR2. Briefly: microbe, parasite or virus in culture. The conditions noted are these: YEM 24, 24 hrs, 80% inhibition; for MIC of compound in the presence of fluconazole (+): 1/8 × MIC of fluconazole.
A further assay deals with YEM 53 C. krusei. Briefly: FEPI MIC with/without 1/8 fluconazole MIC at 24 hrs (Table 11).
Assay [5] relates to YEM 15 C. albicans, CDR1CDR2 up. Briefly: microbe, parasite or virus in culture. The conditions noted are these: YEM 15, 24 hrs, 80% inhibition; for MIC of compound in the presence of fluconazole (+): 1/8 × MIC of fluconazole.

Take `CC[C@H](C)[C@H]1O[C@]2(CC[C@@H]1C)C[C@@H]1C[C@@H](C/C=C(\C)[C@@H](O[C@H]3C[C@H](OC)[C@@H](O[C@H]4C[C@H](OC)[C@@H](O)[C@H](C)O4)[C@H](C)O3)[C@@H](C)/C=C/C=C3\CO[C@@H]4[C@H](O)C(C)=C[C@@H](C(=O)O1)[C@]34O)O2` [Compound 1, Ivermectin B1a]: the MIC of compound in the presence of fluconazole (+) in assay [1] is above 64 µg/mL; in the assay with YEM 30 C. albicans wt, “≦0.03”; in assay [2], 64 µg/mL; in [3] it was above 64 µg/mL; in the assay with YEM 51 C. glabrata wt, 64 µg/mL; in assay [4], above 64 µg/mL. Further, the MIC of compound in the presence of fluconazole (+) was 8 µg/mL with YEM 53 C. krusei and above 64 µg/mL in [5]. The MIC of compound in the absence of fluconazole (−) in assay [1] is above 64 µg/mL; with YEM 30 C. albicans wt (YEM 30, 24 hrs, 80% inhibition), above 64 µg/mL; in [2] it was above 64 µg/mL; in assay [3], above 64 µg/mL; with YEM 51 C. glabrata wt (YEM 51, 24 hrs, 80% inhibition), above 64 µg/mL; in assay [4] it was above 64 µg/mL. Moreover, the MIC of compound in the absence of fluconazole (−) is above 64 µg/mL with YEM 53 C. krusei (YEM 53, 24 hrs, 80% inhibition) and above 64 µg/mL in [5]. Further, in the assay with Aspergillus fumigatus, the “FEPI MIC with fluconazole, 60% Inh” value is on record as above 64. Moreover, the “FEPI MIC with fluconazole, 80% Inh” value in the assay on Aspergillus fumigatus is recorded as above 64. Further, in the assay with Aspergillus fumigatus (60% inhibition), the “FEPI MIC with itraconazole, 60% Inh” value was above 64. In the assay on Aspergillus fumigatus (80% inhibition), the “FEPI MIC with itraconazole, 80% Inh” value is given as above 64. The “FEPI MIC with ketoconazole, 60% Inh” value in the assay with Aspergillus fumigatus (60% inhibition) is above 64. Moreover, the “FEPI MIC with ketoconazole, 80% Inh” value with Aspergillus fumigatus (80% inhibition) is recorded as above 64. Moreover, the “FEPI MIC (alone)” value in the assay on Aspergillus fumigatus (80% inhibition) is above 64.
In the case of LL-F2849ζ (nemedectinζ) [Compound 17], the MIC of compound in the presence of fluconazole (+) was 2 µg/mL in assay [1]; “≦0.03” in the assay on YEM 30 C. albicans wt (YEM 30, 1/8 × MIC of fluconazole, 24 hrs, 80% inhibition); 64 µg/mL in assay [2]; above 64 µg/mL in [3]; 0.5 µg/mL with YEM 51 C. glabrata wt (YEM 51, 1/8 × MIC of fluconazole, 24 hrs, 80% inhibition); above 64 µg/mL in [4]. Further, the MIC of compound in the presence of fluconazole (+) is above 64 µg/mL in the assay with YEM 53 C. krusei (YEM 53, 1/8 × MIC of fluconazole, 24 hrs, 80% inhibition) and “≦0.03” in assay [5]. For the same molecule, the MIC of compound in the absence of fluconazole (−) was above 64 µg/mL in assay [1]; above 64 µg/mL with YEM 30 C. albicans wt (YEM 30, 24 hrs, 80% inhibition); above 64 µg/mL in [2]; above 64 µg/mL in assay [3]; above 64 µg/mL in the assay on YEM 51 C. glabrata wt (YEM 51, 24 hrs, 80% inhibition); above 64 µg/mL in assay [4]. The MIC of compound in the absence of fluconazole (−) with YEM 53 C. krusei (YEM 53, 24 hrs, 80% inhibition) was above 64 µg/mL; in [5], above 64 µg/mL. In addition, in the assay on Aspergillus fumigatus (fluconazole 32 μg/ml (1/4 MIC), 60% inhibition), the “FEPI MIC with fluconazole, 60% Inh” value stood at 64. The “FEPI MIC with fluconazole, 80% Inh” value in the assay on Aspergillus fumigatus (fluconazole 32 μg/ml (1/4 MIC), 80% inhibition) amounted to 64. Also, in the assay on Aspergillus fumigatus (60% inhibition), the “FEPI MIC with itraconazole, 60% Inh” value worked out at 16. In addition, the “FEPI MIC with itraconazole, 80% Inh” value with Aspergillus fumigatus (80% inhibition) is above 64. In the assay on Aspergillus fumigatus (60% inhibition), the “FEPI MIC with ketoconazole, 60% Inh” value worked out at 4. The “FEPI MIC with ketoconazole, 80% Inh” value in the assay on Aspergillus fumigatus (80% inhibition) stood at 4. Also, the “FEPI MIC (alone)” value in the assay on Aspergillus fumigatus (80% inhibition) is given as above 64.
